These results are taken from patent publication EP0727211A1, “Use of src SH2 specific compounds to treat a bone resorption disease” (SMITHKLINE BEECHAM CORPORATION, priority 1995, dated 1996).

One may read the Ki as the dissociation constant of the complex between target and ligand, obtained from inhibition or displacement. By IC50 is commonly meant the point on the concentration scale where inhibition reaches its midpoint. Read a high IC50 as lower potency.

The target of the test is T1, human lck SH2 domain (Homo sapiens, UniProt P06239).
T1 construct: Cloning and expression of human lck SH2 domain containing tags and an enterokinase proteolytic cleavage site; made in house; host or cells: E. coli AR120
T1 sequence (P06239 127-224 limits assumed): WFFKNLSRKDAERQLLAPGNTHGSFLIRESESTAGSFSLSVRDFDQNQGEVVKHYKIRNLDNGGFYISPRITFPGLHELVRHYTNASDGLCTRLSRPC
Briefly: SH2 domain / pY peptide binding assay (ELISA-based, 96 well plate), lck SH2. The following applies: for Ki: Ki calculated from IC50 by the expanded equation, Table II; for IC50: cloned human SH2 domain fusion protein, 0.1 uM biotinylated pY peptide, Table I. The protocol:
The inhibitory activity of compounds at the different human SH2 domains was determined in vitro using SH2 domains expressed as fusion proteins in E. coli. The SH2 domains used herein were the human forms of the src SH2 domain, Grb2 SH2 domain, lck SH2 domain, fyn SH2 domain, SH-PTP2 SH2 domain, p85 SH2 domain and hcp SH2 domain.
The fusion proteins containing the src, lck and hcp SH2 domains were expressed as the general sequence: DET1-DET2-spacer-ek-SH2, where DETI, DET2, spacer, ek and SH2 are as described below. DET1 ("defined epitope tag 1") (SEQ ID NO: 1) is an 11 amino acid sequence found in the Human Immunodeficiency Virus Type 1 (HIV-1) envelope protein gp120 (or gp160). Monoclonal antibodies to various epitopes of HIV-1 gp120 (or gp160) are known in the art, see, for example U.S. Patent 5,166,050. One preferred example is monoclonal antibody 178.1 (see, e.g., Thiriart et al., J. Immunol., 143:1832-1836 (1989)), which was prepared by immunization of mice with a yeast-expressed HIV-1 gp160 molecule from strain BH10 (Ratner et al., Nature, 313:277-284 (1985)). This tag was used for detection of expression (by Western blot), for purification of the protein (by affinity chromatography), and for configuring assays in which the fusion protein was captured or immobilized using the 178.1 antibody. DET2 is a hexahistidine sequence tag (SEQ ID NO: 2) which binds to nickel-containing resins and was used for purification purposes. Spacer (SEQ ID NO: 3) was utilized to design a BamH1 restriction site at the indicated position of the construct. The term -ekrefers to a recognition sequence (SEQ ID NO: 4) for the enterokinase protease which provides for the optional removal of the tags from the SH2 domain, thus producing an SH2 domain that contains no extraneous amino acids. SH2 domains which contain no extraneous amino acids are preferable to tagged protein for crystallography studies. SH2 refers to the SH2 domains of different proteins.
Cloning and expression of human lck SH2 domain containing tags and an enterokinase proteolytic cleavage site (DET1-DET2-spacer-ek-lck SH2).
A DNA sequence encoding protein ek-lck SH2 was PCR amplified from a cDNA clone containing the human lck gene (Genbank accession number M36881) using the following primers: [formula]
The PCR product was digested with BamHI and XbaI, followed by isolation of the digested fragment on an agarose gel. The fragment was ligated into BamHI-XbaI-digested expression vector containing the tagged chicken src gene DET1-DET2-spacer-SH2 described in Procedure 1 above. In that vector, the BamHI site is located in between the coding regions for DET2 and SH2, and the XbaI site is located after the 3' end of the SH2 coding region. Thus, the ek-lck SH2 sequence replaced the src SH2 sequence in the above vector. The ligation reaction was used to transform E. coli MM294cI^+. The construct containing […] was confirmed by DNA sequencing (SEQ ID NO: 6) and induced in E. coli strain AR120 as described in Procedure 1 above. A Coomassie-Blue-stained, Western-blot-positive induced protein band with an apparent molecular weight of 17,000 was observed after nalidixic acid induction.
Cells were lysed at neutral pH by sonication in the presance of lysozyme. After centrifugation, the soluble extract was chromatographed on a Ni^++NTA column. After washing the column with equilibration buffer (Tris buffer pH 8 containing 0.5 M NaCl) and the same buffer containing 15 mM imidazole, the protein was eluted in highly purified form with 25 mM imidazole in equilibration buffer.
The binding assays for the SH2 domains and pY peptides were performed in an ELISA-based 96 well plate assay. In Millipore 96 well filter plates, hydrophilic Durapore® (pore size 0.65um Cat. No. MADVN6550), was added 2 ul (50% suspension) of Protein-G Sepharose (available from Pharmacia of N.J. Cat. No. 17-0618-01) and either 2 ul of 2 mg/ml of MAB178. […]

A value given as a limit tells only on which side of the number the result lay.

In the case of “4-acetamido-benzamido-trans-4-methyl-cyclohexyl-N-1-(amino-R-2-(methoxy methyl)-pyrrolidine) carboxamide [Compound 8]”, the Ki was 360 µM and the IC50 came to 126 µM.

On to `Cc1nnc(SCC2=C(C(=O)O)N3C(=O)[C@@H](NC(=O)C(N)c4ccc(C(=O)O)cc4)[C@H]3SC2)s1` (stereo partly drawn) [Compound 1, 7-[D,L-α-Amino-α-(4-carboxyphenyl)acetamido]-3-[2-(5-methyl-1,3,4-thiadiazolyl)thiomethyl]Δ^3-cephem-4-carboxylic Acid], for which the concentration for half-maximal inhibition (IC50) is 6 µM. As for `N[C@@H](Cc1cc(Br)c(Oc2ccc(O)c(Cc3ccc(O)nn3)c2)c(Br)c1)C(=O)O` [Compound 2, L-3,5-Dibromo-3'-(6-oxo-3(1H)-pyridazinylmethyl)-thyronine], the Ki is > 1000 µM and the IC50 is > 300 µM. Consider `Cc1nc2sc3c(c2c2[nH][nH]c(=O)c12)CCC1(C3)OCCO1` [Compound 3, 8,8-Ethylenedioxy-2,3,7,8,9,10-hexahydro-4-methyl-1H-benzo[b]thieno[2,3-b]pyrazolo[3,4-d]pyridin-3-one], for which the Ki is 11 µM and the 50% inhibitory concentration (IC50) turned out to be 22.9 µM. Take `Cc1ccc(C(=O)c2ccc(C(=O)c3ccc(CC=O)cc3)cc2)cc1` [Compound 4, 4-[4-(4-Methylbenzoyl)benzoyl]phenylacetaldehyde]: the Ki is 163 µM and the IC50 was found to be 163 µM. Turning to `Cc1nc2sc3c(c2c2c1c(=O)[nH]n2C)CCC1(C3)OCCO1` [Compound 5, 1,4-Dimethyl-8,8-ethylenedioxy-2,3,7,8,9,10-hexahydro-1H-benzo[b]thieno[2,3-b]pyrazolo[3,4-d]pyridin-3-one], the Ki was 149 µM and the IC50 is 100 µM. In the case of `CCCCCCNC(=O)[C@H]1CC[C@H](CNC(=O)c2ccc([N+](=O)[O-])cc2)CC1` [Compound 7, 4-nitro-benzamido-trans-4-methyl-cyclohexyl-N-hexyl carboxamide], the Ki is 320 µM and the IC50 came out at 383 µM. As for `CCCNC(=O)[C@H]1CC[C@H](CNC(=O)/C=C/c2ccc(C=O)cc2)CC1` [Compound 9, 4-formyl-E-cinnamido-trans-4-methyl-cyclohexyl-N-(propyl) carboxamide], the Ki is 146 µM and the IC50 stood at 200 µM.
